Literature values, collected in US8748695B2, “Molecular markers linked to PPO inhibitor tolerance in soybeans” (Pioneer Hi-Bred International, Inc., priority 2008, dated 2014).

Columns and labels:
soybean cultivars = settings: in vivo

| Structure (SMILES) | half-life | Growth Reduction Index (soybean cultivars) [%] |
| --- | --- | --- |
| Cc1nn(-c2cc(CC(Cl)C(=O)O)c(Cl)cc2F)c(=O)n1C(F)F (centres unmarked) [Carfentrazone] | approximately 4 days | – |
| Cc1nn(-c2cc(NS(C)(=O)=O)c(Cl)cc2Cl)c(=O)n1C(F)F [sulfentrazone] | – | 20 |
